Key:
[1] = target: Tyrosine-protein kinase JAK2 (Homo sapiens, UniProt O60674); assay: Selectivity interaction (Enyzmatic assay) EUB0000601a JAK2
[2] = target: T1, Histone-lysine N-methyltransferase EHMT2 (Homo sapiens) (UniProt Q96KQ7); settings: at 10 µM
T1 sequence (whole entry): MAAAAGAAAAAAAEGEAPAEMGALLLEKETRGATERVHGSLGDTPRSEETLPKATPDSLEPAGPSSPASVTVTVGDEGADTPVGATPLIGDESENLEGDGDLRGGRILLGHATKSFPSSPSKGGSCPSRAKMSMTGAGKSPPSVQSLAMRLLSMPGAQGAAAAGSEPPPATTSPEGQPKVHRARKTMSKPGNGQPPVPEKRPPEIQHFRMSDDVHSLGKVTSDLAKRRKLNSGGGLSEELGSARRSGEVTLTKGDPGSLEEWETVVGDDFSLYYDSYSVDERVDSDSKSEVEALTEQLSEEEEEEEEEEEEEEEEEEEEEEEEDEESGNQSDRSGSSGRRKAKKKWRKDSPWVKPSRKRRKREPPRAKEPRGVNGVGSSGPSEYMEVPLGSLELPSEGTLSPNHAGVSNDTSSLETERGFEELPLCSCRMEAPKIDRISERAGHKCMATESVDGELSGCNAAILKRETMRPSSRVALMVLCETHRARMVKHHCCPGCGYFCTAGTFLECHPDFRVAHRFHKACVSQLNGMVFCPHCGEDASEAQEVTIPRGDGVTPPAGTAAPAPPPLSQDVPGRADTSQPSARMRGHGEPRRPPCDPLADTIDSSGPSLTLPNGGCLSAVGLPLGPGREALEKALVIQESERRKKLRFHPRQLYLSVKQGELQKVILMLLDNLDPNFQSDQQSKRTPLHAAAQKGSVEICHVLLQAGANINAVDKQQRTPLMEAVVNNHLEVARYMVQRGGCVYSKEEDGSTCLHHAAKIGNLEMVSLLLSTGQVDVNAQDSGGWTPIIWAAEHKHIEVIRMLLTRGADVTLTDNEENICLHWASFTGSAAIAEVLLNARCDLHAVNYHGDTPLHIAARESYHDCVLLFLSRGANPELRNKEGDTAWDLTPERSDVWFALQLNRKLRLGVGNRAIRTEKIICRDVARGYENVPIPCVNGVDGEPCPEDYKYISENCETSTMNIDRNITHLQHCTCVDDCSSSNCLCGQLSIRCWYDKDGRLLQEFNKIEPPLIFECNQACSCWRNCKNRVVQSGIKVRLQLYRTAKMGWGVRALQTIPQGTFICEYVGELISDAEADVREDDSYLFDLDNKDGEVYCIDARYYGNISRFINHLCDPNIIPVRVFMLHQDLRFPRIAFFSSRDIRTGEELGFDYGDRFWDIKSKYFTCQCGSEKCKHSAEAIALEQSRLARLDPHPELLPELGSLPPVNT

[3] = target: Glycogen synthase kinase-3 alpha (Homo sapiens, UniProt P49840); assay: Selectivity interaction (KinomeScan (DiscoverX)) EUB0000229b GSK3A; settings: at 10 µM
[4] = target: Mitogen-activated protein kinase kinase kinase kinase 5 (Homo sapiens) (UniProt Q9Y4K4); assay: Selectivity interaction (KinomeScan (DiscoverX)) EUB0001550a MAP4K5; settings: at 1 µM
[5] = target: BDNF/NT-3 growth factors receptor (Homo sapiens) (UniProt Q16620); settings: at 10 µM
[6] = target: T2, Cyclin-dependent kinase 11A (Homo sapiens) (UniProt Q9UQ88); assay: Selectivity interaction (ActivX KiNativ screen (kinase selectivity in THP-1 cell lysates)) EUB0000639a CDK11A; format: subcellular; settings: lysate, at 5 µM
T2 sequence (whole entry): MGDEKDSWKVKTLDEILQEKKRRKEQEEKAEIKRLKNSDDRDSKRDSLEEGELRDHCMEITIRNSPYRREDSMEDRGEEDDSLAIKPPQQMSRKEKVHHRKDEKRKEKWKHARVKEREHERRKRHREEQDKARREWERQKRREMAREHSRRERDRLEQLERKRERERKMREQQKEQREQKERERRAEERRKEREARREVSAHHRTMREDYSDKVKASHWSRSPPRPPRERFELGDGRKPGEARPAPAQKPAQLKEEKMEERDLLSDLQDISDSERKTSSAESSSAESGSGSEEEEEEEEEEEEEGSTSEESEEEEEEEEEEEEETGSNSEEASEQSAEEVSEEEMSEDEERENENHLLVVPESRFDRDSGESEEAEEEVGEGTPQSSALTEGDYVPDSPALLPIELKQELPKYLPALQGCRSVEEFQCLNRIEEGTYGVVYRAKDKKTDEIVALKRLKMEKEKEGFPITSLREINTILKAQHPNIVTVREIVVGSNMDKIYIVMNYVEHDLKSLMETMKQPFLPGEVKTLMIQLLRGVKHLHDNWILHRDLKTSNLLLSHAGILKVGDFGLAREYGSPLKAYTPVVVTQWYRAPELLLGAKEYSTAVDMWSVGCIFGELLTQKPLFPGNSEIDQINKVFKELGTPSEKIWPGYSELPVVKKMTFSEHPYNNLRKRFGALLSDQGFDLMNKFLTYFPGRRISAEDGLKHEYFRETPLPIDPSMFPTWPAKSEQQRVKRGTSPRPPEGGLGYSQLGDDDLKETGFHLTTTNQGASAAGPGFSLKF

[7] = target: T3, Membrane-associated tyrosine- and threonine-specific cdc2-inhibitory kinase (Homo sapiens) (UniProt Q99640); assay: Selectivity interaction (Ambit KINOMEscan and KiNATiv profiling in Jurkat cells) EUB0000090b PKMYT1; format: cell-based; settings: at 1 µM
T3 sequence (whole entry): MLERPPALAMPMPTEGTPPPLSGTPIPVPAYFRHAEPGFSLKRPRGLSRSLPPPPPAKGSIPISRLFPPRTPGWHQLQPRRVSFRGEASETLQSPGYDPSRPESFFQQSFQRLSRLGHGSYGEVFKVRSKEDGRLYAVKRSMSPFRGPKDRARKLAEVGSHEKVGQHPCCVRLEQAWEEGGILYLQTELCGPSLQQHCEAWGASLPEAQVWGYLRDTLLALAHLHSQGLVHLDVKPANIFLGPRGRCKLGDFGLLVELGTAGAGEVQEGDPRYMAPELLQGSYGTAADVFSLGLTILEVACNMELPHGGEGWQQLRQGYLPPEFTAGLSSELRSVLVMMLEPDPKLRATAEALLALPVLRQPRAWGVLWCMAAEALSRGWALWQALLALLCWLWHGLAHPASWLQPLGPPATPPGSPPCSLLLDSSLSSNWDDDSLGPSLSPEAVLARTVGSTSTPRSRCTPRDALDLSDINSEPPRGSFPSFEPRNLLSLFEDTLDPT

[8] = target: Calcium/calmodulin-dependent protein kinase type 1D (Homo sapiens) (UniProt Q8IU85); assay: Selectivity interaction (KinomeScan (DiscoverX)) EUB0001619a CAMK1D; settings: at 1 µM
Chain of Calcium/calmodulin-dependent protein kinase type 1D (Homo sapiens) (Q8IU85 whole entry, looked up): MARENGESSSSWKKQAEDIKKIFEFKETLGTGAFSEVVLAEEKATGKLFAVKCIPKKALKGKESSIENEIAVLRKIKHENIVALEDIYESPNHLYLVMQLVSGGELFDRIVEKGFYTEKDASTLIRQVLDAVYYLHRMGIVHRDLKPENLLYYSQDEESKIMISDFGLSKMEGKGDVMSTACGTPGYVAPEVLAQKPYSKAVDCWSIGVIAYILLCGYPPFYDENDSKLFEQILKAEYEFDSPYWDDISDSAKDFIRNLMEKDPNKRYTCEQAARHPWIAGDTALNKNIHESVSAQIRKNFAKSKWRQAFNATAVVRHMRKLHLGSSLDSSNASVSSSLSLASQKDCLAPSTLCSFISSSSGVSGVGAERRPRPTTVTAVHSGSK

Chain of Mitogen-activated protein kinase kinase kinase kinase 5 (Homo sapiens) (Q9Y4K4 whole entry, looked up): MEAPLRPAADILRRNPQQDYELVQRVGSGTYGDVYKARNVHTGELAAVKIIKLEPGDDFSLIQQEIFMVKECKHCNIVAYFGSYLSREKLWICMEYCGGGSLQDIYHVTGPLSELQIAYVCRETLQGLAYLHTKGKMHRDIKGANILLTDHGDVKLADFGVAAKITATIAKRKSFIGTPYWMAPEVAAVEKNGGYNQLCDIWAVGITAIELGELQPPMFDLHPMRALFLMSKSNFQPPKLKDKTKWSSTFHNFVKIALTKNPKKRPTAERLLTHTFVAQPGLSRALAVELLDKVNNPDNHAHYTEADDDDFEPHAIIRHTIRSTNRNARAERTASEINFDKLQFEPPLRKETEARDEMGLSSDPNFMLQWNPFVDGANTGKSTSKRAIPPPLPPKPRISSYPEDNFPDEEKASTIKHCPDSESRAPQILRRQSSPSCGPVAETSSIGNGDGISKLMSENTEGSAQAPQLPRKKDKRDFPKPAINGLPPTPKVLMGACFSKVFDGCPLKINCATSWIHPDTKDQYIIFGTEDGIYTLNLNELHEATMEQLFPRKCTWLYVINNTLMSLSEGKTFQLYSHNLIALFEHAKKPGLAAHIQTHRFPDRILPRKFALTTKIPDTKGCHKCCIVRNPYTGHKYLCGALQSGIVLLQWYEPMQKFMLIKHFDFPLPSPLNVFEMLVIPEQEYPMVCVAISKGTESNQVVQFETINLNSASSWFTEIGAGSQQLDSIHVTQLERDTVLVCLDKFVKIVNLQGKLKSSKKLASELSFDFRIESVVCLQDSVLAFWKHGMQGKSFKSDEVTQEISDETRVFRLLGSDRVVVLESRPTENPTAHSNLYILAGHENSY
Chain of Tyrosine-protein kinase JAK2 (O60674 whole entry): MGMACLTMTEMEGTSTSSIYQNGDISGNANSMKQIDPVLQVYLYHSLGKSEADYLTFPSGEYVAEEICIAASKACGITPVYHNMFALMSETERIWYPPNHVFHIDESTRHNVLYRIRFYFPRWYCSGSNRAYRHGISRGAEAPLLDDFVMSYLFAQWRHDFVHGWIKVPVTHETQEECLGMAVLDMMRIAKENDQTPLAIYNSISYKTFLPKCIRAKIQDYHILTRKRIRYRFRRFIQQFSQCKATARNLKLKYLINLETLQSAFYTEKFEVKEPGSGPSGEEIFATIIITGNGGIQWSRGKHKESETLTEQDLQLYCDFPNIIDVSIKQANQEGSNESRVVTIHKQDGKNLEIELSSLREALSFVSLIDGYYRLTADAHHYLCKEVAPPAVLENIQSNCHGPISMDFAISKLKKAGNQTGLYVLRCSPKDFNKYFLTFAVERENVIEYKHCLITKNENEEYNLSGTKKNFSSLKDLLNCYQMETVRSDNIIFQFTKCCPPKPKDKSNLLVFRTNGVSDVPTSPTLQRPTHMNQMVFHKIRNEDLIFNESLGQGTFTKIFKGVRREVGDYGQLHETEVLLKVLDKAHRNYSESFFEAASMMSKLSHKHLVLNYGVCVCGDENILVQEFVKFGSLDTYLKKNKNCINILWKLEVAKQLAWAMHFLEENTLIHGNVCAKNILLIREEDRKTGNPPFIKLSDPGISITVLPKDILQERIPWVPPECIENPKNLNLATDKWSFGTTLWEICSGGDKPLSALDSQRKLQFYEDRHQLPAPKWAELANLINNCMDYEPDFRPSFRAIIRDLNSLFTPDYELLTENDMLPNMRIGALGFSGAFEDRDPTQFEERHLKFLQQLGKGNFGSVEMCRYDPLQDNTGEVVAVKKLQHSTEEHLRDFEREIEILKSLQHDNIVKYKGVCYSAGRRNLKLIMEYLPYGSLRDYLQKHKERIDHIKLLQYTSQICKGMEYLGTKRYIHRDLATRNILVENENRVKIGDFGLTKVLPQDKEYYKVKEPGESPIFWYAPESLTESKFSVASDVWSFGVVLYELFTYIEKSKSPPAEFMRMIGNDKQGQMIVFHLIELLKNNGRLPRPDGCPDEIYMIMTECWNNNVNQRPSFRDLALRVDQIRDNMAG
Chain of Glycogen synthase kinase-3 alpha (P49840 2-483 limits assumed): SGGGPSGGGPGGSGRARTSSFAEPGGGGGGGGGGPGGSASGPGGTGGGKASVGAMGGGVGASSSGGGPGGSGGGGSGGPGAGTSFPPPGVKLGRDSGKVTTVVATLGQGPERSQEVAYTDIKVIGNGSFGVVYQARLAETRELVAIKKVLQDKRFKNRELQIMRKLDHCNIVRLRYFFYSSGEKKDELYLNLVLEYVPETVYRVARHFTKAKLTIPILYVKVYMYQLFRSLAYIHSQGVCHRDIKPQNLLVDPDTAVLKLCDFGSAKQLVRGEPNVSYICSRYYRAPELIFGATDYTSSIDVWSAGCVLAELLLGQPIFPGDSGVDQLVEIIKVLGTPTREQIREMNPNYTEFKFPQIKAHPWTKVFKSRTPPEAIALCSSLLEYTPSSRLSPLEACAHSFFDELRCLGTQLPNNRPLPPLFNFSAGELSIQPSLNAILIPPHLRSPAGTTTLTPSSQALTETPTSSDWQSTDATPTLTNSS
Chain of BDNF/NT-3 growth factors receptor (Homo sapiens) (Q16620 32-822 limits assumed): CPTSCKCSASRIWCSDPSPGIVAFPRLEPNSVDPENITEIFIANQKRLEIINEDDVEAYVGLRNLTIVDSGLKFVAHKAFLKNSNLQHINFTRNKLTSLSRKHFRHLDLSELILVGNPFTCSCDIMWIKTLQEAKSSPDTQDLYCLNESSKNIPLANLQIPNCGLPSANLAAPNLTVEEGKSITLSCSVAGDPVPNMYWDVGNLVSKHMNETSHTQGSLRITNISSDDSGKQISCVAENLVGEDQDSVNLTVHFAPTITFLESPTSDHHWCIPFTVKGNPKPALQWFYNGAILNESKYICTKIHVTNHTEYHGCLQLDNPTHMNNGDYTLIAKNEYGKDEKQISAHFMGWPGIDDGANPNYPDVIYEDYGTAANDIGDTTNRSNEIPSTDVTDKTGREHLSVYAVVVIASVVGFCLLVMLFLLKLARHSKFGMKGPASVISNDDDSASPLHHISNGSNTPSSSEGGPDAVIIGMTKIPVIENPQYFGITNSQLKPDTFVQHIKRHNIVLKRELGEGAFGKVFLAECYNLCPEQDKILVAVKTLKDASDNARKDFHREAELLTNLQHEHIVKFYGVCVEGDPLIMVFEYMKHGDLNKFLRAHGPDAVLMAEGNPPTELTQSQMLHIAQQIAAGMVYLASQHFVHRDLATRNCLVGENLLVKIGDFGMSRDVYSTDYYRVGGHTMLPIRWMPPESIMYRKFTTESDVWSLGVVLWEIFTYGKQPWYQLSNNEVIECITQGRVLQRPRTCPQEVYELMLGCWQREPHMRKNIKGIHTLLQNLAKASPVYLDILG

With `CCc1cc(Nc2nccc(-c3c(-c4ccc(OC)c(C(=O)Nc5c(F)cccc5F)c4)nc4ccccn34)n2)c(OC)cc1N1CCC(N2CCN(S(C)(=O)=O)CC2)CC1` the IC50 [1] was over 16 µM.

`CNCCN1CCC(c2cc(CN(C)C(=O)c3cccc(Oc4ccccc4)c3)ccn2)CC1` was tested, and the % activity [2] was over 90%.

`COc1cc(N(C)c2ccnc3ccc(C(F)(F)F)cc23)cc(OC)c1OC` gave a % binding [3] of 93%.

Work on `CN(C)CC#Cc1ccc2[nH]c3c(c2c1)-c1nc(N)ncc1CCC3` yielded a % of control [4] of 96%.

With `CCN(CC)CCCCNc1ncc2cc(-c3cc(OC)cc(OC)c3)c(NC(=O)NC(C)(C)C)nc2n1` the % of control [5] was 100%.

`CC[C@@H]1[C@H](F)C(=O)N[C@@H]1COc1nccc2cc(C(N)=O)c(OC)cc12` [ZIMLOVISERTIB] was tested, and the % of inhibition [6] was -20.8%.

Compound `CN(C)C/C=C/C(=O)Nc1ccc(C(=O)N2CCCC(Nc3ncc(Cl)c(-c4c[nH]c5ccccc45)n3)C2)cc1` (stereo not drawn) has a % of control [7] of 93%.

`N#Cc1cccc(-c2c[nH]c3ncnc(N4CCOCC4)c23)c1` gave a % of control [8] of 88%.

— ChEMBL document CHEMBL5465560, “Selectivity Literature for EUbOPEN Chemogenomic Library” (2024)
